Broadly, the viability, T/C is the ratio of treated to control. What is called IC50 is the concentration that inhibits the measured activity by half.

The assay has as its system 324938-238-R-J1-PDC complex spheroid growth, % test/control. The assay is described as follows: Anticancer human tumor 324938-238-R-J1-PDC patient-derived bladder carcinoma cell line growth inhibition [AhR]. To be noted: for viability, T/C: stronger effect = lower value. In outline:
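Agents were dosed in half-log steps down from roughly clinical Cmax, or from 10 microM where Cmax was unknown, alone and with AhR antagonists. Read-out: percent test/control growth of tumor spheroids containing HUVEC and MSC stromal cells.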

Setting [1] is: curve of first compound, second compound 0.1 µM.
Setting [2] is: curve of first compound, second compound 0.316 µM.
[3] abbreviates: curve of first compound, second compound 1 µM.
Where [4] appears, read: curve of first compound, second compound 3.16 µM.
The mark [5] stands for this setting: curve of first compound, second compound 10 µM.
[6] abbreviates: second compound 0.1 µM, first compound 0.00316 µM.
Setting [7] is: second compound 0.1 µM, first compound 0.01 µM.
Setting [8] is: second compound 0.1 µM, first compound 0.0316 µM.
The mark [9] stands for this setting: second compound 0.1 µM, first compound 0.1 µM.
Where [10] appears, read: second compound 0.1 µM, first compound 0.316 µM.
Setting [11] is: second compound 0.1 µM, first compound 1 µM.
Where [12] appears, read: second compound 0.316 µM, first compound 0.00316 µM.
[13] abbreviates: second compound 0.316 µM, first compound 0.01 µM.
Setting [14] is: second compound 0.316 µM, first compound 0.0316 µM.
Setting [15] is: second compound 0.316 µM, first compound 0.1 µM.
Where [16] appears, read: second compound 0.316 µM, first compound 0.316 µM.
[17] abbreviates: second compound 0.316 µM, first compound 1 µM.
Setting [18] is: second compound 1 µM, first compound 0.00316 µM.
[19] abbreviates: second compound 1 µM, first compound 0.01 µM.
Setting [20] is: second compound 1 µM, first compound 0.0316 µM.
[21] abbreviates: second compound 1 µM, first compound 0.1 µM.
Where [22] appears, read: second compound 1 µM, first compound 0.316 µM.
Where [23] appears, read: second compound 1 µM, first compound 1 µM.
[24] abbreviates: second compound 3.16 µM, first compound 0.00316 µM.
[25] abbreviates: second compound 3.16 µM, first compound 0.01 µM.
Where [26] appears, read: second compound 3.16 µM, first compound 0.0316 µM.
Where [27] appears, read: second compound 3.16 µM, first compound 0.1 µM.
Where [28] appears, read: second compound 3.16 µM, first compound 0.316 µM.
Setting [29] is: second compound 3.16 µM, first compound 1 µM.
[30] abbreviates: second compound 10 µM, first compound 0.00316 µM.
Where [31] appears, read: second compound 10 µM, first compound 0.01 µM.
Setting [32] is: second compound 10 µM, first compound 0.0316 µM.
Setting [33] is: second compound 10 µM, first compound 0.1 µM.
[34] abbreviates: second compound 10 µM, first compound 0.316 µM.
The mark [35] stands for this setting: second compound 10 µM, first compound 1 µM.
The mark [36] stands for this setting: second compound 0.1 µM, first compound 3.16 µM.
Where [37] appears, read: second compound 0.1 µM, first compound 10 µM.
[38] abbreviates: second compound 0.316 µM, first compound 3.16 µM.
[39] abbreviates: second compound 0.316 µM, first compound 10 µM.
The mark [40] stands for this setting: second compound 1 µM, first compound 3.16 µM.
Setting [41] is: second compound 1 µM, first compound 10 µM.
Setting [42] is: second compound 3.16 µM, first compound 3.16 µM.
Where [43] appears, read: second compound 3.16 µM, first compound 10 µM.
Setting [44] is: second compound 10 µM, first compound 3.16 µM.
Setting [45] is: second compound 10 µM, first compound 10 µM.

Each structure is given as a SMILES string. “And” between values parts separate entries of the source, which are not always exact repeats. Equal entries are not always repeated.
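Further: spheroids exposed to agents for seven days before viability read.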

In the case of `O=C(c1cc(Cc2n[nH]c(=O)c3ccccc23)ccc1F)N1CCN(C(=O)C2CC2)CC1`, the viability, T/C (compound 0.0316 µM) is 115% and 100% and 97.8%; the viability, T/C (compound 0.1 µM) is 73.1% and 102% and 96.9%; the viability, T/C (compound 0.316 µM) was 66% and 103% and 82%; the viability, T/C (compound 1 µM) was 86.6% and 110% and 88.1%; the viability, T/C (compound 3.16 µM) is 69.2% and 90.5% and 77.8%; the viability, T/C (compound 10 µM) was 79% and 74.1% and 47.3%. Moreover, the IC50 (curve of compound) was > 10000 nM and 9370 nM.

Consider `Cn1ncnc1C1c2n[nH]c(=O)c3cc(F)cc(c23)NC1c1ccc(F)cc1` (stereo not given), for which the viability, T/C is 107% and 101% and 111% (compound 0.000316 µM); 100% and 105% and 98% (compound 0.001 µM); 92.3% and 101% and 90.6% (compound 0.00316 µM); 97.1% and 74.3% and 87.5% (compound 0.01 µM); 98% and 79.1% and 61.1% (compound 0.0316 µM); 89.5% and 65.1% and 46.1% (compound 0.1 µM). Besides, the IC50 (curve of compound) was > 100 nM and 78.1 nM.

For the compound `Nc1ncn(C2CC(O)C(CO)O2)c(=O)n1` (stereo not given) + Cc1cncc(-c2nc(NCCc3c[nH]c4ccccc34)c3ncn(C(C)C)c3n2)c1, the IC50 by setting is: under setting [1], over 1000 nM; under setting [2], over 1000 nM; under setting [3], over 1000 nM; under setting [4], over 1000 nM; under setting [5], under 3.16 nM. Moreover, the viability, T/C under setting [6] is 120%; the viability, T/C under setting [7] was 86.4%; the viability, T/C under setting [8] is 101%; the viability, T/C under setting [9] is 85.2%; the viability, T/C under setting [10] is 128%; the viability, T/C under setting [11] is 103%. The viability, T/C under setting [12] is 111%; the viability, T/C under setting [13] is 103%; the viability, T/C under setting [14] was 135%; the viability, T/C under setting [15] is 92.9%; the viability, T/C under setting [16] is 80.8%; the viability, T/C under setting [17] is 161%. For the same compound, the viability, T/C is 93.4% under setting [18]; 107% under setting [19]; 127% under setting [20]; 125% under setting [21]; 84.8% under setting [22]; 98.2% under setting [23]. For the same compound, the viability, T/C reads like this: under setting [24], 83.5%; under setting [25], 76.6%; under setting [26], 104%; under setting [27], 76.9%; under setting [28], 100%; under setting [29], 112%. Besides, the viability, T/C was 4.98% under setting [30]; 1.77% under setting [31]; 6.15% under setting [32]; 3.98% under setting [33]; 4.54% under setting [34]; 7.74% under setting [35].

On to `CC1COCCN1c1cc(-c2ccnn2C)c2ccnc(-c3ccn[nH]3)c2n1` (stereo not given) + CC(CO)NC(=O)c1cc(-c2ccc(Cl)cc2)nn(-c2cnn(C)c2)c1=O, for which the IC50 runs as follows: under setting [1], 81.3 nM; under setting [2], 65 nM; under setting [3], 67.1 nM; under setting [4], 36.7 nM; under setting [5], 22.5 nM. Moreover, the viability, T/C under setting [6] is 97%; the viability, T/C under setting [7] is 110%; the viability, T/C under setting [8] was 75.2%; the viability, T/C under setting [9] was 44.6%; the viability, T/C under setting [10] is 29.7%; the viability, T/C under setting [11] was 18.6%. Further, the viability, T/C is 88.6% under setting [12]; 102% under setting [13]; 72.7% under setting [14]; 36.6% under setting [15]; 26.4% under setting [16]; 21.6% under setting [17]. For the same compound, the viability, T/C by setting is: under setting [18], 88.7%; under setting [19], 86.6%; under setting [20], 72.8%; under setting [21], 37.7%; under setting [22], 24.1%; under setting [23], 20.4%. Further, the viability, T/C by setting is: under setting [24], 75.9%; under setting [25], 79%; under setting [26], 51%; under setting [27], 31.1%; under setting [28], 26.7%; under setting [29], 18.7%. Also, the viability, T/C is, setting by setting: under setting [30], 62.6%; under setting [31], 63.7%; under setting [32], 43.9%; under setting [33], 29%; under setting [34], 24.8%; under setting [35], 20.1%.

With `CCc1c2c(nc3ccc(O)cc13)-c1cc3c(c(=O)n1C2)COC(=O)[C@]3(O)CC`, the viability, T/C is 80.8% and 57.3% and 38.8% (compound 0.000949 µM); 71% and 52.4% and 28.9% (compound 0.003 µM); 70.2% and 18.2% and 19% (compound 0.00949 µM); 90.4% and 15.3% and 17.9% (compound 0.03 µM); 78.3% and 16.9% and 17% (compound 0.0949 µM); 69.4% and 14.9% and 15.4% (compound 0.3 µM).

Take `O=C(c1cc(Cc2n[nH]c(=O)c3ccccc23)ccc1F)N1CCN(C(=O)C2CC2)CC1` + Cc1cncc(-c2nc(NCCc3c[nH]c4ccccc34)c3ncn(C(C)C)c3n2)c1: the IC50 reads like this: under setting [1], over 10000 nM; under setting [2], over 10000 nM; under setting [3], over 10000 nM; under setting [4], over 10000 nM; under setting [5], under 31.6 nM. For the same compound, the viability, T/C runs as follows: under setting [8], 106%; under setting [9], 96.6%; under setting [10], 78.3%; under setting [11], 71.6%; under setting [36], 72.5%; under setting [37], 79.5%. Further, the viability, T/C runs as follows: under setting [14], 97.2%; under setting [15], 115%; under setting [16], 105%; under setting [17], 97.2%; under setting [38], 92.3%; under setting [39], 74.4%. Further, the viability, T/C is, setting by setting: under setting [20], 78.4%; under setting [21], 106%; under setting [22], 91%; under setting [23], 61.5%; under setting [40], 72%; under setting [41], 59.6%. Also, the viability, T/C was 78.4% under setting [26]; 66.2% under setting [27]; 84.3% under setting [28]; 68.2% under setting [29]; 77.7% under setting [42]; 67.6% under setting [43]. Besides, the viability, T/C by setting is: under setting [32], 5.77%; under setting [33], 4.45%; under setting [34], 2.26%; under setting [35], 4.78%; under setting [44], 4.97%; under setting [45], 8.77%.

In the case of `COc1cc(Nc2ncc3c(n2)-c2ccc(Cl)cc2C(c2c(F)cccc2OC)=NC3)ccc1C(=O)O` + Cc1cncc(-c2nc(NCCc3c[nH]c4ccccc34)c3ncn(C(C)C)c3n2)c1, the IC50 runs as follows: under setting [1], over 10000 nM; under setting [2], over 10000 nM; under setting [3], over 10000 nM; under setting [4], over 10000 nM; under setting [5], under 31.6 nM. Besides, the viability, T/C runs as follows: under setting [8], 116%; under setting [9], 130%; under setting [10], 149%; under setting [11], 91.1%; under setting [36], 127%; under setting [37], 108%. Moreover, the viability, T/C is 91.2% under setting [14]; 137% under setting [15]; 104% under setting [16]; 87.1% under setting [17]; 93.4% under setting [38]; 65% under setting [39]. Further, the viability, T/C reads like this: under setting [20], 88.9%; under setting [21], 127%; under setting [22], 98.2%; under setting [23], 107%; under setting [40], 76%; under setting [41], 80.4%. Also, the viability, T/C is, setting by setting: under setting [26], 97.5%; under setting [27], 131%; under setting [28], 121%; under setting [29], 96.2%; under setting [42], 82.7%; under setting [43], 84.5%. Moreover, the viability, T/C is 17.1% under setting [32]; 14.8% under setting [33]; 18.8% under setting [34]; 15% under setting [35]; 19.1% under setting [44]; 25.6% under setting [45].

The values are drawn from PubChem BioAssay AID1918995 (Molecular Pharmacology Branch, DTP, NCI, 2023).
